{"source": "patent EP0294307B1", "about": "“3-Arylcarbamoyl-5-aminomethyl-oxazolidines, and their salts with pharmaceutically acceptable acids” (CORTIAL S.A., priority 1987, dated 1988)", "key": {"souris": {"system": "souris", "assay": "Toxicity: mortality in mice after oral or intraperitoneal administration", "type": "in vivo"}, "[1]": {"system": "rat génétiquement hypertendu", "assay": "Arterial blood pressure in genetically hypertensive rats after oral administration", "type": "in vivo", "details": "60mg/kg voie orale", "protocol": "Administré chez le rat génétiquement hypertendu à la dose de 60mg/kg par voie orale le COR3267 entraine une diminution de la pression artérielle de 8, 12 et 14 %, ces variations étant respectivement mesurées 2, 4 et 6 heures après l'administration."}, "candida albicans": {"system": "candida albicans", "assay": "In vitro antifungal activity by standard dilution techniques", "type": "cell-based", "details": "concentration de 20 microgramme par ml", "excerpt": "In vitro une activité antifongique a été mise en évidence vis à vis de candida albicans pour le COR3296. L'activité observée par des techniques de dilution standard est significative à la concentration de 20 microgramme par ml."}, "[2]": {"details": "voie intrapéritonéale, 200mg/kg"}}, "data": [{"molecule": "N=C1OC(CN2CCN(c3ccccc3)CC2)CN1C(=O)Nc1ccccc1", "note": "(stereo not drawn) [COR3262, Phényl carbamoyl-3, imino-2, (phényl-4 pipérazinylméthyl)-5 oxazolidine]", "values": [{"measurement": "mortalité", "setting": "souris; [2]", "result": "aucune mortalité"}, {"measurement": "mortalité", "setting": "souris; voie orale, 300mg/kg", "result": "aucune mortalité"}]}, {"molecule": "N=C1OC(CN2CCN(c3ccc(F)cc3)CC2)CN1C(=O)Nc1ccccc1", "note": "(stereo not drawn) [COR3278, Phényl carbamoyl-3 imino-2 ((fluoro-4 phényl)-4 pipérazinylméthyl)-5 oxazolidine]", "values": [{"measurement": "mortalité", "setting": "souris; [2]", "result": "aucune mortalité"}, {"measurement": "mortalité", "setting": "souris; voie orale, 300mg/kg", "result": "aucune mortalité"}]}, {"molecule": "Chlorhydrate de la phényl carbamoyl-3 ((fluoro-4 phényl)-4 pipérazinylméthyl)-5 oxazolidinone-2 [COR3265]", "values": [{"measurement": "mortalité", "setting": "souris; [2]", "result": "aucune mortalité"}, {"measurement": "mortalité", "setting": "souris; voie orale, 300mg/kg", "result": "aucune mortalité"}]}, {"molecule": "N=C1OC(CN2CCN(c3ccccn3)CC2)CN1C(=O)Nc1ccccc1", "note": "(stereo not drawn) [COR3263, Phényl carbamoyl-3 imino-2 ((pyridyl-2)-4 pipérazinylméthyl)-5 oxazolidine]", "values": [{"measurement": "mortalité", "setting": "souris; [2]", "result": "aucune mortalité"}, {"measurement": "mortalité", "setting": "souris; voie orale, 300mg/kg", "result": "aucune mortalité"}]}, {"molecule": "Chlorhydrate de la phényl carbamoyl-3 ((chloro-3 phényl)-4 pipérazinylméthyl)-5 oxazolidinone-2 [COR3277]", "values": [{"measurement": "mortalité", "setting": "souris; [2]", "result": "aucune mortalité"}, {"measurement": "mortalité", "setting": "souris; voie orale, 300mg/kg", "result": "aucune mortalité"}]}, {"molecule": "N=C1OC(CN2CCN(c3cccc(C(F)(F)F)c3)CC2)CN1C(=O)Nc1ccccc1", "note": "(stereo not drawn) [COR3266, Phényl carbamoyl-3 imino-2 ((trifluorométhyl-3 phényl)-4 pipérazinylméthyl)-5 oxazolidine]", "values": [{"measurement": "mortalité", "setting": "souris; [2]", "result": "aucune mortalité"}, {"measurement": "mortalité", "setting": "souris; voie orale, 300mg/kg", "result": "aucune mortalité"}]}, {"molecule": "N=C1OC(CN2CCN(c3cccc(Cl)c3)CC2)CN1C(=O)Nc1ccccc1", "note": "(stereo not drawn) [COR3279, Phényl carbamoyl-3 imino-2 ((chloto-3 phényl)-4 pipérazinylméthyl)-5 oxazolidine]", "values": [{"measurement": "mortalité", "setting": "souris; [2]", "result": "aucune mortalité"}, {"measurement": "mortalité", "setting": "souris; voie orale, 300mg/kg", "result": "aucune mortalité"}]}, {"molecule": "Chlorhydrate de la phényl carbamoyl-3, (phényl-4 pipérazinylméthyl)-5 oxazolidinone-2 [COR3267]", "values": [{"measurement": "mortalité", "setting": "souris; [2]", "result": "aucune mortalité"}, {"measurement": "mortalité", "setting": "souris; voie orale, 300mg/kg", "result": "aucune mortalité"}, {"measurement": "diminution de la pression artérielle", "setting": "[1]; 2 heures après l'administration", "result": 8, "unit": "%"}, {"measurement": "diminution de la pression artérielle", "setting": "[1]; 4 heures après l'administration", "result": 12, "unit": "%"}, {"measurement": "diminution de la pression artérielle", "setting": "[1]; 6 heures après l'administration", "result": 14, "unit": "%"}]}, {"molecule": "N=C1OC(CN2CCN(c3ccccc3)CC2)CN1C(=S)Nc1ccccc1", "note": "(stereo not drawn) [COR3296, Phényl thiocarbamoyl-3 imino-2 (phényl-4 pipérazinylméthyl)-5 oxazolidine]", "values": [{"measurement": "activité antifongique", "setting": "candida albicans", "result": "significative"}, {"measurement": "mortalité", "setting": "souris; [2]", "result": "aucune mortalité"}, {"measurement": "mortalité", "setting": "souris; voie orale, 300mg/kg", "result": "aucune mortalité"}]}, {"molecule": "O=C(Nc1ccccc1)N1CC(CN2CCN(c3cccc(C(F)(F)F)c3)CC2)OC1=O", "note": "(stereo not drawn) [COR3276, Phényl carbamoyl-3 ((trifluorométhyl-3 phényl)-4 pipérazinylméthyl)-5 oxazolidinone-2]", "values": [{"measurement": "mortalité", "setting": "souris; [2]", "result": "aucune mortalité"}, {"measurement": "mortalité", "setting": "souris; voie orale, 300mg/kg", "result": "aucune mortalité"}]}]}
